Like-named read-outs stand apart in the source and are kept apart here.
Legend:
[1] = Enzyme-catalyzed hydrolysis in human CD4+ T-lymphocyte CEM cell extracts; format: in vitro ADME; details: for half-life at 0.86 mM: CEM/0 cell extracts (CD4+ T-lymphocytes), human CD4+ T-lymphocyte CEM cell extracts, 37 °C, read-out: CEM/0 cell extracts t 1/2 (converted)
Procedure: The stability of prodrugs 6 and the γ‐alkyl‐NTPs 7 was further investigated in human CD4 ^+ T‐lymphocyte CEM cell extracts. […] Thus, an enzymatic cleavage reaction took place. Half‐lives as low as 0.4 h (6 az) to 5.2 h (6 dz) were determined. […] This is in accordance to our previous results for the DiPPro‐[ ^17 , ^18 ] or the TriPPPro‐compounds 5.[ ^22 , ^23 ] In all cases we observed the predominant formation of γ‐alkyl‐d4TTPs 7 and d4TDP 2 d in very low concentration (Figure 2 B) but no NTP formation was detected, in contrast to the studies using the previously described TriPPPro compounds 5.[ ^23 , ^24 ] However, the difference to the compounds bearing long lipophilic acyl groups was not very pronounced (2‐ to 3‐fold). In the case of γ‐(AB‐C4,alkyl‐C18)‐d4TTP 6 cz, γ‐C18‐d4TTP 7 z was detected as the main product. After 8 h incubation, the ratio of γ‐C18‐d4TTP 7 z and d4TDP 2 d was 5:1. This was in sharp contrast to the studies performed with TriPPPro compounds 5.[ ^23 , ^24 ] There, it was almost impossible to detect significant concentrations of d4TTP due to its fast dephosphorylation to form first d4TDP and finally d4TMP 2 m. […] The formation of thymine or d4TTP 2 t from γ‐C18‐d4TTP 7 z was not detected (Supporting Information, Figure SI2).
(§1) ProLab 300 from Schott Co.. Thermomixer: Eppendorf Thermomixer 5436 and CellMedia Thermoschüttler basic were used. […]
Enzyme-catalyzed hydrolysis of γ-(AB,alkyl)-d4TTPs 6, γ-alkyl-d4TTPs 7,15 and TriPPPros 5 in CEM cell extracts:
18 µL of the appropriate 50 mM DMSO-d6 stock solution was diluted to 6.0 mM hydrolysis solution by addition of 132.0 µL DMSO-d6.
7-10 different samples including 10 µL water and 10 µL hydrolysis solution were prepared in 2 mL Eppendorf® vials. The reaction was started by addition of 50 µL human CEM cell extract and the mixture was incubated at 37 °C for different time periods. The reactions were stopped by addition of 150 μL MeOH. The solution was kept on ice for 5 min followed by centrifugation for 5 min (13000 rpm).
The supernatants were filtered (Chromafil® RC-20/15 MS, 0.2 μm) and stored in liquid nitrogen. When testing, the samples were defrosted and injection volume with 80 μL was used for HPLC analysis. The calculation of t1/2 was performed analogously to that for the chemical hydrolysis studies.
(§2) Preparation of cell extracts: Human CD4+ T-lymphocyte CEM cells were grown in RPMI-1640-based cell culture medium to a final density of ~3·10^6 cells/ml. Then, cells were centrifuged for 10 min at 1,250 rpm at 4 °C, washed twice with cold PBS, and the pellet was re-suspended at 10^8 cells/ml and sonicated (Hielscher Ultrasound Techn., 100% amplitude, 3·times for 10 sec) to destroy cell integrity. The resulting cell suspension was then centrifuged at 10,000 rpm to remove cell debris, and the supernatant divided in aliquots before being frozen at -80 C and used.

HIV-2(ROD) = assay: Anti-HIV activity assay, HIV-2-infected thymidine-kinase-deficient CEM/TK- cell cultures; format: cell-based; details: for EC50: mean±SD, n=2-3
Procedure: (§3) γ‐(AB,alkyl)‐d4TTP prodrugs 6 and the γ‐alkyl‐d4TTPs 7 were evaluated for their ability to inhibit the replication of HIV in HIV‐1‐ or HIV‐2‐infected wild‐type CEM/0 as well as mutant thymidine‐kinase‐deficient CEM cell cultures (CEM/TK^−). For comparison, two TriPPPro derivatives 5 were also included in this assay.
(§4) Anti-HIV activity assay: Inhibition of HIV-1(IIIB)- and HIV-2(ROD)-induced cytopathicity in wild-type CEM/0 and thymidine kinase-deficient CEM/TK- cell cultures was measured in microtiter 96-well plates containing ~3·105 CEM cells/mL infected with 100 CCID50 of HIV per milliliter and containing appropriate dilutions of the test compounds. After 4−5 days of incubation at 37 °C in a CO2-controlled humidified atmosphere, CEM giant (syncytium) cell formation was examined microscopically. […]
(§5) was defined as the compound concentration required to inhibit HIV-induced giant cell formation by 50%. […]
(§6) The result was visualized by fluorescence imaging. […]
as §6

HIV-1(IIIB) = assay: Anti-HIV activity assay, HIV-1-infected wild-type CEM/0 cell cultures; format: cell-based; details: Human immunodeficiency virus 1, IIIB, CCRF-CEM, read-out: EC50 CEM/0 HIV-1
Procedure: as §3, §4, §5, §6, §6

[2] = Chemical hydrolysis in aqueous phosphate buffer (PBS, pH 7.3); format: physicochemical; details: for half-life at 0.92 mM: phosphate buffered saline (PBS), read-out: PBS pH 7.3 t 1/2 (converted); for half-life at 0.92 mM / PBS pH 7.3 t 1/2: aqueous 25 mM phosphate buffer, pH 7.3, 37 °C, removal of AB group, n.h. = no hydrolysis observed through cleavage of AB-mask
Procedure: γ‐(AB,alkyl)‐NTP prodrugs 6 and γ‐alkyl‐NTPs 7 were incubated in aqueous phosphate buffer (PBS, 25 mM, pH 7.3), or were exposed to pig liver esterase (PLE) in phosphate buffer (PBS) and to human CD4^+ T‐lymphocyte cell extracts to study their stability and the product distribution. The hydrolysis mixtures were analyzed by means of analytical rp‐18‐HPLC. The calculated half‐lives of prodrugs 6 (Table 1, t 1/2) reflect the removal of the bioreversible AB group to yield γ‐alkyl‐NTPs 7. Possible hydrolysis pathways and products are summarized in Scheme 4.
As hydrolysis products, a predominant formation of γ‐alkyl‐d4TTPs 7 and a very small amount of d4TDP […] was detected (approximately 3 %). After consumption of the starting material, no further increase of d4TDP concentration was observed. This supports the hypothesis that only the double‐γ‐esterified d4TTP prodrugs 6 were prone to a bond breakage between the γ‐ and β‐phosphate. […] In contrast to previous studies with TriPPPro‐NTPs 5 containing a second cleavable mask (first generation NTP prodrugs),[ ^23 , ^24 , ^25 ] no d4TTP was detected in these studies using 6 or 7. A side reaction occurred during the studies using compounds 7 that led to the formation of thymine by the cleavage of the glycosidic bond as reported before.[ ^19 , ^22 ]
as §1
Chemical hydrolysis of prodrugs of γ-(AB,alkyl) d4TTP 6 as well as the γ-alkyl-NTPs 7,15:
Stock solutions (50mM in DMSO-d6) of compounds 6,7 were prepared. After dilution of 11 µL stock solution with 100 µL milliQ water and 189 µL DMSO-d6 to 1.9mM hydrolysis solutions the reaction was started by addition of 300 µL phosphate buffer saline (PBS, 50mM, pH 7.3). The solution was incubated at 37 C in a thermomixer. An initial aliquot (25 µL) was taken directly and analyzed by analytical HPLC at 265-266 nm. Further aliquots were taken for monitoring the kinetic hydrolysis. The exponential decay curves (pseudo-first order) based on absolute integral values were calculated with commercially available software (OriginPro 9.0G) and yielded the half-lives t1/2 of the prodrugs via one determination. […]
The calculation of t1/2 was performed analogously to that for the chemical hydrolysis studies.
as §2
(1 picture or pasted object on this page, not shown here)

[3] = Human immunodeficiency virus 2, CEM-TK(-), read-out: EC50 CEM/TK− HIV-2, thymidine-kinase-deficient CEM/TK− cells, HIV-2
[4] = Human immunodeficiency virus 2, thymidine-kinase-deficient CEM/TK− cells, HIV-2, read-out: EC50 CEM/TK− HIV-2
[5] = wild-type CEM/0 cells, HIV-1, mean±SD, n=2-3
[6] = read-out: EC50 CEM/TK− HIV-2, thymidine-kinase-deficient CEM/TK− cells, HIV-2

Structure (SMILES)	stability in cell extracts (in words) ([1]; CEM cell extracts, incubation up to 30 h)	antiviral activity in CEM/TK− cell cultures (in words) (HIV-2(ROD); HIV-2-infected CEM/TK− cells)	EC50 (HIV-2(ROD); [3]) [nM]	EC50 (HIV-1(IIIB)) [nM]	half-life at 0.86 mM [1] [h]	EC50 (HIV-2(ROD); [4]) [nM]	EC50 (HIV-1(IIIB); [5]) [nM]	half-life at 0.92 mM [2] [h]	EC50 (HIV-2(ROD); [6]) [nM]	PBS pH 7.3 t 1/2 [2]	antiviral activity improved versus TriPPPro intermediates comprising a C17 aliphatic chain (HIV-2(ROD); HIV-2-infected CEM/TK− cells) [fold]	more active than d4T (HIV-2(ROD); HIV-2-infected CEM/TK− cells) [fold]	calculated half-life in PBS hydrolysis (decrease by thymine formation, cleavage of the glycosidic bond) ([2]; PBS pH 7.3)
Cc1cn(C2C=CC(COP(=O)(O)OP(=O)(O)OP(=O)(O)O)O2)c(=O)[nH]c1=O (stereo not shown) [2 t, d4TTP, reference compound]	rapidly enzymatically dephosphorylated	inactive	> 100000	1050 ± 350	–	–	–	–	–	–	–	–	–
CCCCCCCCCCCCCCCCCCOP(=O)(OCc1ccc(OC(=O)CCCC)cc1)OP(=O)(O)OP(=O)(O)OCC1C=CC(n2cc(C)c(=O)[nH]c2=O)O1 (stereo not shown) [6 cz, γ‐(AB‐C4,alkyl‐C18)‐d4TTP]	–	–	–	–	4.8	170	180 ± 90	237	–	–	–	–	–
CCCCCCCCCCCCCCCC(=O)Oc1ccc(COP(=O)(OCCCC)OP(=O)(O)OP(=O)(O)OCC2C=CC(n3cc(C)c(=O)[nH]c3=O)O2)cc1 (stereo not shown) [6 ew, γ‐(AB‐C15,alkyl‐C4)‐d4TTP]	–	inactive	–	–	2.2	> 10000	330 ± 110	198	–	–	–	–	–
CCCCOP(=O)(O)OP(=O)(O)OP(=O)(O)OCC1C=CC(n2cc(C)c(=O)[nH]c2=O)O1 (stereo not shown) [7 w, γ‐C4‐d4TTP]	–	almost inactive	35000	950 ± 510	> 30	–	–	–	36000 ± 29000	n.h.^[c]	–	–	–
CCCCCCCCCCCCCCCCCCOP(=O)(O)OP(=O)(O)OP(=O)(O)OCC1C=CC(n2cc(C)c(=O)[nH]c2=O)O1 (stereo not shown) [7 z, γ‐C18‐d4TTP]	–	highly potent	55	110 ± 42	> 30	–	–	–	50 ± 27	n.h.^[c]	30	2700	about 1500 h

From publication PMC7756582, “Prodrugs of γ‐Alkyl‐Modified Nucleoside Triphosphates: Improved Inhibition of HIV Reverse Transcriptase” (Angewandte Chemie (International Ed. in English), 2020)
